From US20050107423A1, “Quinolone antibacterial agents” (priority 2003, published 2005)
Values after ≈ are worked out from the molar mass of the structure shown.

Legend:
Test in all cases: Antibacterial assay, microtitration MIC (Test A)
Assay type in all cases: cell-based
E. faecalis MGH-2 = conditions: strain MGH-2; for MIC: Enterococcus faecalis, MGH2, Gram Positive Bacteria, read-out: Minimum Inhibitory Concentrations E. faecalis MGH-2; for Minimum Inhibitory Concentrations E. faecalis MGH-2: Gram Positive Bacteria
Description: (§1) The compounds of the present invention were tested against an assortment of Gram-negative and Gram-positive organisms using standard microtitration techniques (Cohen et. al., Antimicrob., 1985;28:766; Heifetz, et. al., Antimicrob., 1974;6:124). The results of the evaluation are shown in Tables 1A and B, wherein “-” means no data.

S. aureus UC-76 = conditions: strain UC-76; for MIC: Staphylococcus aureus, UC76, Gram Positive Bacteria, read-out: Minimum Inhibitory Concentrations S. aureus UC-76
Description: as §1

S pyogenes C203 = conditions: Gram Positive Bacteria, strain C203; for MIC: read-out: Minimum Inhibitory Concentrations S pyogenes C203
Description: as §1

S. pneumo SV-1 = conditions: Gram Positive Bacteria; strain SV-1; read-out: Minimum Inhibitory Concentrations S. pneumo SV-1
Description: as §1

H. influenzae HI-3542 = conditions: Haemophilus influenzae, HI3542, Gram Negative Bacteria; strain HI-3542; read-out: Minimum Inhibitory Concentrations H. influenzae HI-3542
Description: as §1

E. coli EC-2549 = conditions: Escherichia coli, EC2549, Gram Negative Bacteria; strain EC-2549; read-out: Minimum Inhibitory Concentrations E. coli EC-2549
Description: as §1

M. catarrhalis BC-3531 = conditions: Moraxella catarrhalis, BC3531, Gram Negative Bacteria; strain BC-3531; read-out: Minimum Inhibitory Concentrations M. catarrhalis BC-3531
Description: as §1

| Compound | MIC (E. faecalis MGH-2) [µg/mL] | MIC (S. aureus UC-76) [µg/mL] | MIC (S pyogenes C203) [µg/mL] | MIC (S. pneumo SV-1) [µg/mL] | Minimum Inhibitory Concentrations E. faecalis MGH-2 (E. faecalis MGH-2) [µg/mL] | Minimum Inhibitory Concentrations S. aureus UC-76 (S. aureus UC-76; Gram Positive Bacteria) [µg/mL] | Minimum Inhibitory Concentrations S pyogenes C203 (S pyogenes C203) [µg/mL] | MIC (H. influenzae HI-3542) [µg/mL] | MIC (E. coli EC-2549) [µg/mL] | MIC (M. catarrhalis BC-3531) [µg/mL] |
| --- | --- | --- | --- | --- | --- | --- | --- | --- | --- | --- |
| O=C(O)c1cn(C2CC2)c2c(Cl)c(N3C[C@@H](CO)[C@@H](CO)C3)c(F)cc2c1=O [drawing 401] | 0.125 (≈ 0.304 µM) | 0.004 (≈ 0.00974 µM) | 0.125 (≈ 0.304 µM) | 0.125 (≈ 0.304 µM) | – | – | – | – | – | – |
| Cc1c(N2CC(C)(CO)C(C)(CO)C2)c(F)cc2c(=O)c(C(=O)O)cn(C3CC3)c12 (stereo not shown) [drawing 440] | – | – | – | 0.5 (≈ 1.19 µM) | 1 | 0.015 | 1 | – | – | – |
| Cc1c(N2CCC(CCO)C2)c(F)cc2c(=O)c(C(=O)O)cn(C3CC3)c12 (stereo not shown) [drawing 341] | 2 (≈ 5.34 µM) | 0.125 (≈ 0.334 µM) | 0.06 (≈ 0.16 µM) | 0.03 (≈ 0.0801 µM) | – | – | – | – | – | – |
| COc1c(N2CCC(C(CO)CO)C2)c(F)cc2c(=O)c(C(=O)O)cn(C3CC3)c12 (stereo not shown) [drawing 340] | 0.03 (≈ 0.0714 µM) | 0.004 (≈ 0.00951 µM) | 0.06 (≈ 0.143 µM) | 0.03 (≈ 0.0714 µM) | – | – | – | – | – | – |
| CCOC[C@@H]1CN(c2c(F)cc3c(=O)c(C(=O)O)cn(C4CC4)c3c2C)C[C@@H]1CO [drawing 409] | 0.125 (≈ 0.299 µM) | 0.004 (≈ 0.00956 µM) | 0.125 (≈ 0.299 µM) | 0.06 (≈ 0.143 µM) | – | – | – | – | – | – |
| CCC(=O)OC[C@@H]1CN(c2c(F)cc3c(=O)c(C(=O)O)cn(C4CC4)c3c2C)C[C@@H]1COC(=O)CC [drawing 412] | 0.5 (≈ 0.995 µM) | 0.03 (≈ 0.0597 µM) | 0.125 (≈ 0.249 µM) | 0.06 (≈ 0.119 µM) | – | – | – | – | – | – |
| Cc1c(N2CCC(C(O)C(F)(F)F)C2)c(F)cc2c(=O)c(C(=O)O)cn(C3CC3)c12 (stereo not shown) [drawing 363] | – | 0.0015 (≈ 0.0035 µM) | 0.5 (≈ 1.17 µM) | 0.25 (≈ 0.584 µM) | 0.25 | – | – | – | – | – |
| COc1c(N2C[C@H](CO)[C@@H](CO)C2)c(F)cc2c(=O)c(C(=O)O)cn(C3CC3)c12 [drawing 404] | 0.125 (≈ 0.308 µM) | 0.008 (≈ 0.0197 µM) | 0.125 (≈ 0.308 µM) | 0.125 (≈ 0.308 µM) | – | – | – | – | – | – |
| COc1c(N2C[C@@H]3CC[C@@](O)(CO)[C@@H]3C2)c(F)cc2c(=O)c(C(=O)O)cn(C3CC3)c12 [drawing 460] | 0.25 (≈ 0.578 µM) | 0.015 (≈ 0.0347 µM) | 0.5 (≈ 1.16 µM) | 0.25 (≈ 0.578 µM) | – | – | – | – | – | – |
| CCCOC[C@@H]1CN(c2c(F)cc3c(=O)c(C(=O)O)cn(C4CC4)c3c2C)C[C@@H]1CO [drawing 410] | 0.125 (≈ 0.289 µM) | 0.004 (≈ 0.00925 µM) | 0.125 (≈ 0.289 µM) | 0.06 (≈ 0.139 µM) | – | – | – | – | – | – |
| COC[C@@H]1CN(c2c(F)cc3c(=O)c(C(=O)O)cn(C4CC4)c3c2C)C[C@@H]1COC [drawing 407] | 0.5 (≈ 1.19 µM) | 0.03 (≈ 0.0717 µM) | 0.25 (≈ 0.597 µM) | 0.25 (≈ 0.597 µM) | – | – | – | – | – | – |
| Cc1c(N2CCC(C(O)C(F)F)C2)c(F)cc2c(=O)c(C(=O)O)cn(C3CC3)c12 (stereo not shown) [drawing 343] | 0.06 (≈ 0.146 µM) | 0.004 (≈ 0.00975 µM) | 0.125 (≈ 0.305 µM) | 0.06 (≈ 0.146 µM) | – | – | – | – | – | – |
| COc1c(N2C[C@@H](CO)[C@@H](CO)C2)c(F)c(N)c2c(=O)c(C(=O)O)cn(C3CC3)c12 [drawing 400] | 0.25 (≈ 0.593 µM) | 0.008 (≈ 0.019 µM) | 0.25 (≈ 0.593 µM) | 0.125 (≈ 0.297 µM) | – | – | – | – | – | – |
| COc1c(N2CCC(CO)(CO)C2)c(F)cc2c(=O)c(C(=O)O)cn(C3CC3)c12 [drawing 377] | 0.5 (≈ 1.23 µM) | 0.06 (≈ 0.148 µM) | 0.25 (≈ 0.615 µM) | 0.25 (≈ 0.615 µM) | – | – | – | – | – | – |
| O=C(O)c1cn(C2CC2)c2c(OC(F)F)c(N3C[C@@H](CCO)[C@@H](CCO)C3)c(F)cc2c1=O [drawing 416] | 0.125 (≈ 0.266 µM) | 0.008 (≈ 0.017 µM) | 0.125 (≈ 0.266 µM) | 0.125 (≈ 0.266 µM) | – | – | – | – | – | – |
| Cc1c(N2C[C@@H]3CC[C@@H](O)[C@@H]3C2)c(F)cc2c(=O)c(C(=O)O)cn(C3CC3)c12 [drawing 453] | 0.06 (≈ 0.155 µM) | 0.004 (≈ 0.0104 µM) | 0.06 (≈ 0.155 µM) | 0.03 (≈ 0.0776 µM) | – | – | – | – | – | – |
| COc1c(N2CCC(CO)(CO)C2)c(F)cc2c(=O)c(C(=O)O)cn(C3CC3)c12 [drawing 375] | – | – | – | – | – | – | – | 0.15 (≈ 0.369 µM) | 0.5 (≈ 1.23 µM) | 0.0125 (≈ 0.0308 µM) |
| COc1c(N2CCC(C(O)C3(O)CC3)C2)c(F)cc2c(=O)c(C(=O)O)cn(C3CC3)c12 (stereo not shown) [drawing 328] | – | – | – | – | – | – | – | 0.015 (≈ 0.0347 µM) | 0.5 (≈ 1.16 µM) | 0.125 (≈ 0.289 µM) |
| Cc1c(N2CC(C(O)CO)C(C)(C)C2)c(F)cc2c(=O)c(C(=O)O)cn(C3CC3)c12 (stereo not shown) [drawing 425] | – | – | – | – | – | – | – | 0.06 (≈ 0.143 µM) | 0.5 (≈ 1.19 µM) | 0.06 (≈ 0.143 µM) |
| COc1c(N2C[C@@H]3CC[C@@](O)(CO)[C@@H]3C2)c(F)cc2c(=O)c(C(=O)O)cn(C3CC3)c12 [drawing 449] | – | – | – | – | – | – | – | 0.06 (≈ 0.139 µM) | 0.5 (≈ 1.16 µM) | 0.06 (≈ 0.139 µM) |
| Nc1nc(-n2cc(C(=O)O)c(=O)c3cc(F)c(N4C[C@@H]5CC[C@@H](O)[C@@H]5C4)c(Cl)c32)c(F)cc1F [drawing 444] | – | – | – | – | – | – | – | 0.03 (≈ 0.0606 µM) | 0.25 (≈ 0.505 µM) | 0.03 (≈ 0.0606 µM) |
